Measured values published in patent US4123532A, “Method for treatment of asthma” (E. R. Squibb & Sons, Inc., priority 1977, dated 1978).
Like-named read-outs stand apart in the source and are kept apart here.

Test system: reaginic antibody-induced passive cutaneous anaphylaxis (PCA) reaction
Test: Passive Cutaneous Anaphylaxis (PCA) Test in rats (anti-asthma activity)
Assay type: in vivo, rat
Details: for anti-asthma activity: rat PCA testing, result in words; for ED50: Rattus norvegicus, read-out: ID50 (the source's name)
Excerpt: The skin of rats is first sensitized by the intradermal injection of reaginic (allergic) antibody. Twenty-four hours later, the animals receive a challenge injection of antigen together with Evan's blue dye given intravenously. The antigen, thus injected directly into the circulation, encounters the antibody in the skin and an "allergic reaction" occurs which is identified by the formation of intracutaneous edema. The edema is marked by the presence of the Evan's blue dye in the circulation.
The anti-asthmatic activity of these compounds is determined by the reaginic antibody-induced passive cutaneous anaphylaxis (PCA) reaction in rats.
In this test, 0.05 ml of appropriately diluted whole rat serum containing IgE antibody is injected intradermally into the skin of a rat. The next day, the animals are dosed with the test compound ten minutes prior to the i.v. challenge injection of antigen and Evan's blue dye. Thirty minutes later, the animals are sacrificed, the skin reflected and the reaction quantitated by measuring the dye-marked edema and scoring the color intensity of the reaction.

[1] = IP, 75 mpk, rats dosed ten min. prior to challenge
[2] = IP, rats dosed ten min. prior to challenge

`CCOC(=O)c1c(-c2ccccc2)nn2c(=O)[nH]c3ccccc3c12` [5,6-Dihydro-5-oxo-2-phenylpyrazolo[1,5-c]quinazoline-1-carboxylic acid, ethyl ester] was tested, and the Maximum % inhibition [1] was 42% and the anti-asthma activity was “has anti-asthma activity”.

`CCCCOC(=O)c1cc2c3ccccc3[nH]c(=O)n2n1` [5,6-Dihydro-5-oxopyrazolo[1,5-c]-quinazoline-2-carboxylic acid, n-butyl ester] was tested, and the Maximum % inhibition (IP, (150 mpk) (10 mg/kg) both printed, rats dosed ten min. prior to challenge) was 78%, the ED50 [2] was 9 mg/kg and the anti-asthma activity was “has anti-asthma activity”.

With `CCOC(=O)c1cc2c3ccccc3[nH]c(=O)n2n1` [5,6-Dihydro-5-oxopyrazolo[1,5-c]quinazoline-2-carboxylic acid, ethyl ester] the Maximum % inhibition (IP, 10 mg/kg, rats dosed ten min. prior to challenge) was 94%, the Maximum % inhibition (PO, 9 mg/kg, rats dosed ten min. prior to challenge) was 95% and the ED50 [2] was 2 mg/kg. The ED50 (PO (orally), rats dosed ten min. prior to challenge) was 3 mg/kg and the anti-asthma activity was “has anti-asthma activity”.

For `CCOC(=O)c1cc2c3cc(Cl)ccc3[nH]c(=O)n2n1` [9-Chloro-5,6-dihydro-5-oxopyrazolo[1,5-c]quinazoline-2-carboxylic acid, ethyl ester], the Maximum % inhibition [1] was 93%, the ED50 [2] was 9 mg/kg and the anti-asthma activity was “has anti-asthma activity”.

With `COC(=O)c1nn2c(=O)[nH]c3ccccc3c2c1C(=O)OC` [Example 11] the “% Inhibition” value (PCA, IP, 150 mpk) was 21%.

In the case of `CC(=O)c1cc2c3ccccc3[nH]c(=O)n2n1` [Example 12], the “% Inhibition” value (PCA, IP, 75 mpk) was 32%.

With `O=C(O)c1cc2c3ccccc3[nH]c(=O)n2n1` [Example 13, 5,6-Dihydro-5-oxopyrazolo-[1,5-c]quinazoline-2-carboxylic acid] the “% Inhibition” value (PCA, IP, 75 mpk) was 36%.

With `CC(=O)c1cc2c3ccccc3n(C)c(=O)n2n1` [Example 14] the “% Inhibition” value (PCA, IP, 150 mpk) was 32%.

`CCOC(=O)c1nn2c(=O)[nH]c3ccccc3c2c1C` [Example 15] was tested, and the “% Inhibition” value (PCA, IP, 150 mpk) was 63% and the ED50 (PCA, IP) was 58 mg/kg.

For `O=C(c1ccccc1)c1cc2c3ccccc3[nH]c(=O)n2n1` [Example 16], the “% Inhibition” value (PCA, IP, 150 mpk) was 37%.

For `CCOC(=O)c1cc2c3cc(OC)ccc3[nH]c(=O)n2n1` [Example 17], the “% Inhibition” value (PCA, IP, 25 mpk) was 90%.

In the case of `O=c1[nH]c2ccccc2c2ccnn12` [Pyrazolo[1,5-c]quinazoline-5(6H)-one, Pyrazolo[1,5-c]quinazolin-5(6H)-one], the Maximum % inhibition [1] was 59% and the anti-asthma activity was “has anti-asthma activity”.
